Tested on: HEK293T cells carrying the ATF4 luciferase reporter
Experiment: ATF4-Luc assay (in vitro model of VWMD)
Assay type: cell-based
Conditions: Homo sapiens, HEK-293T; HEK293T ATF4 5'-UTR firefly luciferase reporter cells, 1 μg/mL tunicamycin, 7 hours, One Glo luminescence
Description: In order to test exemplary compounds of the invention in a cellular context, a stable VWMD cell line was first constructed. The ATF4 reporter was prepared by fusing the human full-length ATF4 5′-UTR (NCBI Accession No. BC022088.2) in front of the firefly luciferase (FLuc) coding sequence lacking the initiator methionine as described in Sidrauski et al (eLife 2013). The construct was used to produce recombinant retroviruses using standard methods and the resulting viral supernatant was used to transduce HEK293T cells, which were then subsequently selected with puromycin to generate a stable cell line.
HEK293T cells carrying the ATF4 luciferase reporter were plated on polylysine coated 384-well plates (Greiner Bio-one) at 30,000 cells per well. Cells were treated the next day with 1 μg/mL tunicamycin and 200 nM of a compound of Formula (I) or Formula (II) for 7 hours. Luminescence was measured using One Glo (Promega) as specified by the manufacturer. Cells were maintained in DMEM with L-glutamine supplemented with 10% heat-inactivated FBS (Gibco) and Antibiotic-Antimycotic solution (Gibco).
Table 2 below summarizes the EC50 data obtained using the ATF4-Luc assay for exemplary compounds of the invention.

Row | Structure (SMILES) | EC50
1 | O=C(COc1ccc(Cl)c(F)c1)NC12CC(C(=O)N3CC4(C3)CN(c3ccc(Cl)c(F)c3)C4)(C1)C2 [Compound 100, 2-(4-chloro-3-fluorophenoxy)-N-{3-[6-(4-chloro-3-fluorophenyl)-2,6-diazaspiro[3.3]heptane-2-carbonyl]bicyclo[1.1.1]pentan-1-yl}acetamide] | > 2000 nM
2 | O=C(COc1ccc(Cl)c(F)c1)NC12CC(C(=O)N3CCC(c4ccc(Cl)cc4)CC3)(C1)C2 [Compound 101, 2-(4-chloro-3-fluorophenoxy)-N-{3-[4-(4-chlorophenyl)piperidine-1-carbonyl]bicyclo[1.1.1]pentan-1-yl}acetamide] | 50 to 250 nM
3 | O=C(COc1ccc(Cl)c(F)c1)NC12CCC(C(=O)N3CCC(c4ccc(Cl)cc4)CC3)(CC1)CC2 [Compound 102, 2-(4-chloro-3-fluorophenoxy)-N-{4-[4-(4-chlorophenyl)piperidine-1-carbonyl]bicyclo[2.2.2]octan-1-yl}acetamide] | 50 to 250 nM
4 | O=C(COc1ccc(Cl)c(F)c1)NC12CC(C(=O)N3CCC(c4ccc(Cl)cc4)C3)(C1)C2 (stereo not shown) [Compound 103, 2-(4-chloro-3-fluorophenoxy)-N-{3-[3-(4-chlorophenyl)pyrrolidine-1-carbonyl]bicyclo[1.1.1]pentan-1-yl}acetamide] | > 2000 nM
5 | O=C(COc1ccc(Cl)c(F)c1)NC12CCC(C(=O)N3CCC(c4ccc(Cl)cc4)C3)(CC1)CC2 (stereo not shown) [Compound 104, 2-(4-chloro-3-fluorophenoxy)-N-{4-[3-(4-chlorophenyl)pyrrolidine-1-carbonyl]bicyclo[2.2.2]octan-1-yl}acetamide] | > 2000 nM
6 | O=C(COc1ccc(Cl)c(F)c1)NC12CCC(C(=O)N3CC(c4ccc(Cl)cc4)C3)(CC1)CC2 [Compound 105, 2-(4-chloro-3-fluorophenoxy)-N-{4-[3-(4-chlorophenyl)azetidine-1-carbonyl]bicyclo[2.2.2]octan-1-yl}acetamide] | < 50 nM
7 | O=C(COc1ccc(Cl)c(F)c1)NC12CC(C(=O)N3CC(c4ccc(Cl)cc4)C3)(C1)C2 [Compound 106, 2-(4-chloro-3-fluorophenoxy)-N-{3-[3-(4-chlorophenyl)azetidine-1-carbonyl]bicyclo[1.1.1]pentan-1-yl}acetamide] | < 50 nM
8 | O=C(COc1ccc(Cl)c(F)c1)NC12CCC(C(=O)N3CCN(c4ccc(Cl)cc4)CC3)(CC1)CC2 [Compound 107, 2-(4-chloro-3-fluorophenoxy)-N-{4-[4-(4-chlorophenyl)piperazine-1-carbonyl]bicyclo[2.2.2]octan-1-yl}acetamide] | 50 to 250 nM
9 | O=C(COc1ccc(Cl)c(F)c1)NC12CCC(C(=O)N3CC(O)(c4ccc(Cl)cc4)C3)(CC1)[C@@H](O)C2 [Compound 108, 2-(4-chloro-3-fluorophenoxy)-N-{(3S)-4-[3-(4-chlorophenyl)-3-hydroxyazetidine-1-carbonyl]-3-hydroxybicyclo[2.2.2]octan-1-yl}acetamide] | 250 to 1000 nM
10 | O=C(COc1ccc(Cl)c(F)c1)NC12CCC(C(=O)N3CC(O)(c4ccc(Cl)cc4)C3)(CC1)[C@H](O)C2 [Compound 109, 2-(4-chloro-3-fluorophenoxy)-N-{(3R)-4-[3-(4-chlorophenyl)-3-hydroxyazetidine-1-carbonyl]-3-hydroxybicyclo[2.2.2]octan-1-yl}acetamide] | 50 to 250 nM
11 | O=C(COc1ccc(Cl)c(F)c1)NC12CC(C(=O)N3CC(O)(c4ccc(Cl)cc4)C3)(C1)C2 [Compound 110, 2-(4-chloro-3-fluorophenoxy)-N-{3-[3-(4-chlorophenyl)-3-hydroxyazetidine-1-carbonyl]bicyclo[1.1.1]pentan-1-yl}acetamide] | > 2000 nM
12 | O=C(COc1ccc(Cl)c(F)c1)NC12CC(C(=O)N3Cc4ccc(Cl)cc4C3)(C1)C2 [Compound 111, N-[3-(5-chloro-1,3-dihydro-2H-isoindole-2-carbonyl)bicyclo[1.1.1]pentan-1-yl]-2-(4-chloro-3-fluorophenoxy)acetamide] | 250 to 1000 nM
13 | O=C(COc1ccc(Cl)c(F)c1)NC12CCC(C(=O)N3Cc4ccc(Cl)cc4C3)(CC1)CC2 [Compound 112, N-[4-(5-chloro-1,3-dihydro-2H-isoindole-2-carbonyl)bicyclo[2.2.2]octan-1-yl]-2-(4-chloro-3-fluorophenoxy)acetamide] | > 2000 nM
14 | O=C(COc1ccc(Cl)c(F)c1)NC12CCC(C(=O)N3CC(c4ccccc4)C3)(CC1)CC2O (stereo not shown) [Compound 113, 2-(4-chloro-3-fluorophenoxy)-N-[2-hydroxy-4-(3-phenylazetidine-1-carbonyl)bicyclo[2.2.2]octan-1-yl]acetamide] | 250 to 1000 nM
15 | O=C(COc1ccc(Cl)c(F)c1)NC12CCC(C(=O)N3CCC(c4ccc(Cl)cc4)C3)(CC1)CC2O (stereo not shown) [Compound 114, 2-(4-chloro-3-fluorophenoxy)-N-{4-[3-(4-chlorophenyl)pyrrolidine-1-carbonyl]-2-hydroxybicyclo[2.2.2]octan-1-yl}acetamide] | > 2000 nM
16 | O=C(COc1ccc(Cl)c(F)c1)NC12CCC(C(=O)N3CC(c4ccc(Cl)cc4)C3)(CC1)CC2O (stereo not shown) [Compound 115, 2-(4-chloro-3-fluorophenoxy)-N-{4-[3-(4-chlorophenyl)azetidine-1-carbonyl]-2-hydroxybicyclo[2.2.2]octan-1-yl}acetamide] | < 50 nM

Reference: patent publication US20230192712A1, “MODULATORS OF THE INTEGRATED STRESS PATHWAY” (Calico Life Sciences LLC, priority 2017, published 2023)
